Assay results from PubChem BioAssay (NCI).
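Method: 48-hour compound exposure of cells in 96-well plates, five concentrations, linear interpolation of endpoints. GI50: concentration for 50% inhibition of growth. TGI marks complete inhibition of growth.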

What was measured:
Experiment in all cases: NCI tumour cell line growth inhibition, 48 h
[1] = system: UACC-257 melanoma
[2] = system: TK-10 renal
[3] = system: SF-268 CNS
[4] = system: UACC-62 melanoma
[5] = system: K-562 leukemia
[6] = system: A498 renal
[7] = system: HCC-2998 colon
[8] = system: SK-MEL-2 melanoma
[9] = system: EKVX NSCLC
[10] = system: MDA-MB-231 breast

CC(=O)c1ccc(NC(=O)C(=O)C(C#N)CC(C)(C)C=O)cc1 (stereo not drawn)
TGI [1]: > 100 µM | TGI [2]: > 100 µM | TGI [3]: > 100 µM | TGI [4]: > 100 µM | TGI [5]: > 100 µM | TGI [6]: > 100 µM | TGI [7]: > 100 µM | TGI [8]: > 100 µM | TGI [9]: > 100 µM

C=Cn1c([N+](=O)[O-])cnc1/C=C/c1ccc(C(=O)OCCN2CCOCC2)cc1
TGI [1]: > 100 µM | TGI [2]: > 100 µM | TGI [3]: > 100 µM | TGI [4]: > 100 µM | TGI [10]: > 100 µM | TGI [5]: > 100 µM | TGI [6]: > 100 µM | TGI [8]: > 100 µM | TGI [9]: > 100 µM

COc1ccc(-c2csc(NC(=O)CN3CCN(c4cc5c(cc4F)c(=O)c(C(=O)O)cn5C4CC4)CC3)n2)cc1
GI50 [2]: 4.62 µM | TGI [2]: 22.9 µM | GI50 [3]: 4.28 µM | TGI [3]: > 100 µM | GI50 [4]: 4.18 µM | TGI [4]: > 100 µM | GI50 [7]: 4.8 µM | TGI [7]: > 100 µM | GI50 [8]: 2.58 µM | TGI [8]: 8.28 µM | GI50 [9]: 4.39 µM | TGI [9]: > 100 µM

O=c1c2cc3c(cc2c2cccc4c2n1CCC4)OCO3
TGI [1]: > 100 µM | TGI [2]: > 100 µM | TGI [4]: > 100 µM | TGI [5]: > 100 µM | TGI [7]: > 100 µM | TGI [8]: > 100 µM | TGI [9]: 99.5 µM

C=C(C(=C)P(=S)(C(C)C)C(C)C)P(=S)(C(C)C)C(C)C
TGI [1]: > 100 µM | TGI [2]: > 100 µM | TGI [3]: > 100 µM | TGI [4]: > 100 µM | TGI [5]: > 100 µM | TGI [6]: > 100 µM | TGI [7]: > 100 µM | TGI [9]: > 100 µM

O=c1[nH]cnc2c(COCCO)c[nH]c12
TGI [1]: > 100 µM | TGI [2]: > 100 µM | TGI [3]: > 100 µM | TGI [4]: > 100 µM | TGI [5]: > 100 µM | TGI [6]: > 100 µM | TGI [8]: > 100 µM | TGI [9]: > 100 µM

O=C(/C=C(\C(=O)c1cccs1)c1cccs1)c1ccc(C(=O)/C=C(\C(=O)c2cccs2)c2cccs2)cc1
TGI [1]: > 100 µM | TGI [2]: > 100 µM | TGI [3]: > 100 µM | TGI [4]: > 100 µM | TGI [10]: > 100 µM | TGI [5]: > 100 µM | TGI [7]: > 100 µM | TGI [8]: > 100 µM | TGI [9]: > 100 µM

Nc1nc(N)c2nc3c(nc2n1)CCCCCCCCCC3
GI50 [1]: 2.4 µM | TGI [1]: > 100 µM | GI50 [3]: 2.1 µM | TGI [3]: > 100 µM | GI50 [4]: 1.39 µM | TGI [4]: > 100 µM | GI50 [10]: 6.04 µM | TGI [10]: > 100 µM | GI50 [5]: 0.43 µM | TGI [5]: > 100 µM | GI50 [6]: 6.9 µM | TGI [6]: > 100 µM | GI50 [7]: 3.83 µM | TGI [7]: > 100 µM

O=c1cccc(-c2cccc(=O)[nH]2)[nH]1
TGI [1]: > 100 µM | TGI [2]: > 100 µM | TGI [4]: > 100 µM | TGI [5]: > 100 µM | TGI [7]: > 100 µM | TGI [9]: > 100 µM

CCOc1ccc2c(c1)c(CC(=O)O)cn2C
TGI [1]: > 100 µM | TGI [2]: > 100 µM | TGI [3]: > 100 µM | TGI [4]: > 100 µM | TGI [10]: > 100 µM | TGI [5]: > 100 µM | TGI [7]: > 100 µM | TGI [8]: > 100 µM | TGI [9]: > 100 µM

NC(=O)CC(N=Cc1nc(-c2ccccc2)oc1O)C(=O)O (stereo not drawn)
TGI [1]: > 100 µM | TGI [2]: > 100 µM | TGI [3]: > 100 µM | TGI [4]: > 100 µM | TGI [5]: > 100 µM | TGI [6]: > 100 µM | TGI [7]: > 100 µM | TGI [8]: > 100 µM | TGI [9]: > 100 µM

O=C(NCCCl)SCCO
TGI [1]: > 100 µM | TGI [2]: > 100 µM | TGI [3]: > 100 µM | TGI [4]: > 100 µM | TGI [5]: > 100 µM | TGI [6]: > 100 µM | TGI [7]: > 100 µM | TGI [8]: > 100 µM | TGI [9]: > 100 µM

CCC1(CN(C)C)CC/C(=C\c2ccc(OC)c(OC)c2)C1=O (stereo not drawn)
TGI [1]: > 100 µM | TGI [2]: > 100 µM | TGI [3]: > 100 µM | TGI [4]: > 100 µM | TGI [5]: > 100 µM | TGI [6]: > 100 µM | TGI [7]: > 100 µM | TGI [8]: > 100 µM | TGI [9]: > 100 µM

COc1cccc(N2C(=O)C3C4C=C5c6ccccc6N(c6ccccc6)C5(C3C2=O)[C@H]2C(=O)N(c3cccc(OC)c3)C(=O)[C@@H]42)c1 (stereo partly drawn)
TGI [1]: > 100 µM | TGI [2]: > 100 µM | TGI [3]: > 100 µM | TGI [4]: > 100 µM | TGI [5]: > 100 µM | TGI [6]: > 100 µM | TGI [8]: > 100 µM | TGI [9]: > 100 µM

Cc1c2c(c(C)c3c1[nH]c1ccccc13)CN(C)CC2
TGI [1]: 31.4 µM | TGI [2]: 51.1 µM | TGI [3]: 47.6 µM | TGI [4]: 31.9 µM | TGI [5]: > 100 µM | TGI [6]: 59.4 µM | TGI [7]: 31.2 µM | TGI [8]: 31.1 µM

NC(CSSCC(N)C(=O)O)C(=O)O (stereo not drawn)
GI50 [1]: > 100 µM | TGI [1]: > 100 µM | GI50 [2]: > 100 µM | TGI [2]: > 100 µM | GI50 [3]: > 100 µM | TGI [3]: > 100 µM | GI50 [4]: > 100 µM | TGI [4]: > 100 µM | GI50 [10]: > 100 µM | TGI [10]: > 100 µM | GI50 [5]: > 100 µM | TGI [5]: > 100 µM | GI50 [6]: > 100 µM | TGI [6]: > 100 µM | GI50 [8]: > 100 µM | TGI [8]: > 100 µM | GI50 [9]: > 100 µM | TGI [9]: > 100 µM

COC(=O)Cc1cc(=O)[nH]c2c1C(=O)CCC2
TGI [1]: > 100 µM | TGI [2]: > 100 µM | TGI [3]: > 100 µM | TGI [5]: > 100 µM | TGI [7]: > 100 µM | TGI [8]: > 100 µM | TGI [9]: > 100 µM

Cc1ccc(S(=O)(=O)N/N=C/C(C)C)cc1
TGI [1]: > 100 µM | TGI [2]: > 100 µM | TGI [3]: > 100 µM | TGI [4]: > 100 µM | TGI [5]: > 100 µM | TGI [6]: > 100 µM | TGI [7]: > 100 µM | TGI [8]: > 100 µM | TGI [9]: > 100 µM

CC(=O)c1ccc(NC(=O)COC(=O)c2cccc3c(=O)c4ccccc4[nH]c23)cc1
TGI [1]: > 100 µM | TGI [2]: 60.6 µM | TGI [3]: > 100 µM | TGI [4]: > 100 µM | TGI [5]: > 100 µM | TGI [6]: > 100 µM | TGI [7]: > 100 µM | TGI [9]: > 100 µM

O=C1CCCCC12CCC/C2=N\O (stereo not drawn)
TGI [1]: > 100 µM | TGI [2]: > 100 µM | TGI [3]: > 100 µM | TGI [4]: > 100 µM | TGI [5]: > 100 µM | TGI [6]: > 100 µM | TGI [7]: > 100 µM | TGI [8]: > 100 µM | TGI [9]: > 100 µM

OCCN(CCO)c1cccc(N(CCO)CCO)n1
TGI [1]: > 100 µM | TGI [2]: > 100 µM | TGI [3]: > 100 µM | TGI [4]: > 100 µM | TGI [5]: > 100 µM | TGI [6]: > 100 µM | TGI [8]: > 100 µM | TGI [9]: > 100 µM

COc1cc2ccnc3c(=C(SC)SC)c(=O)c(c1OC)c23
TGI [1]: 30.8 µM | TGI [2]: 27.1 µM | TGI [3]: 60.3 µM | TGI [4]: 37.9 µM | TGI [5]: 16.3 µM | TGI [7]: 32.6 µM | TGI [8]: 38.3 µM

O=C1OC(=O)C2C3C=CC(C12)C1C2C=CC2C31 (stereo not drawn)
TGI [1]: > 100 µM | TGI [2]: > 100 µM | TGI [3]: > 100 µM | TGI [5]: > 100 µM | TGI [6]: > 100 µM | TGI [7]: > 100 µM | TGI [8]: > 100 µM | TGI [9]: > 100 µM
